Source: US20230322815A1, “NOVEL COMPOUNDS AND THERAPEUTIC USES THEREOF” (University of Huddersfield, priority 2020, published 2023)

System: HCT116 p53^+/+ cancer cells
Assay: Autophagy (CYTO-ID staining, confocal)
Assay type: cell-based, human
Conditions: 3.125 μM, 40 h
Experimental: FIG. 18. The effects of [L2Cu3]^6+, [L2Zn3]^6+ and [L2Mn3]^6+ on cellular vacuole formation and autophagy in the HCT116 p53^+/+ cancer cells. Representative confocal images are shown of HCT116 p53^+/+ cancer cells following 40 h treatment with vehicle control or 3.125 μM [L2Cu3]^6+, [L2Zn3]^6+, or [L2Mn3]^6+.
Autophagy studies: The effects of 3.125 μM [L2Cu3]^6+, [L2Zn3]^6+ and [L2Mn3]^6+ treatments (40 h) on the induction of cellular vacuoles and autophagy in the HCT116 p53^−/−, HCT116 p53^+/+ and ARPE19 cells are presented in FIGS. 17-19 with representative cell images shown. […] In the ARPE19 cells, levels of autophagy were low with all treatments and similar to basal levels in control-treated cells (FIG. 19).

Q: Which induction of autophagy does the source give for [Zn+2].[Zn+2].[Zn+2].c1ccc(-c2csc(NCCN(CCNc3nc(-c4ccccn4)cs3)CCNc3nc(-c4ccccn4)cs3)n2)nc1.c1ccc(-c2csc(NCCN(CCNc3nc(-c4ccccn4)cs3)CCNc3nc(-c4ccccn4)cs3)n2)nc1 [[L2Zn3]^6+] here?
A: barely detectable
